In patent US8003670B2, “Aminoalkoxy aryl sulfonamide compounds and their use as 5-HT6 ligands” (Suven Life Sciences Limited, priority 2007, dated 2011):
Counter-ions that a name gives are not always drawn. Each block holds one molecule with its values, some of them ahead of it.

Columns and labels:
5-HT6 receptor [1] = target: T1, 5-HT6 receptor (Homo sapiens, UniProt P50406); assay: Binding assay for human 5-HT6 receptor ([3H]LSD radioligand); set-up: expressed in transfected cells; host or cells: HEK293; settings: human recombinant receptor in HEK293 cells, [3H]LSD 1.5 nM; for inhibition at 0.1 µM: 100 nM test compound, read-out: Radioligand binding data at 5-HT6 R (h) % Inhibition of specific binding at 100 nM; for Ki: 37° C., read-out: Radioligand binding data at 5-HT6 R (h) Ki
Protocol: Compounds can be tested according to the following the procedures.
Receptor source: Human recombinant expressed in HEK293 cells
Radioligand: [^3H]LSD (60-80 Ci/mmol)
Final ligand concentration—[1.5 nM]
Non-specific determinant: Methiothepin mesylate—[0.1 μM]
Reference compound: Methiothepin mesylate
Positive control: Methiothepin mesylate
Reactions were carried out in […] TRIS-HCl (pH 7.4) containing […] MgCl2, 0.5 mM EDTA for […] at 37° C. The reaction was terminated by rapid vacuum filtration onto glass fiber filters. Radioactivity trapped onto the filters was determined and compared to control values in order to ascertain any interactions of test compound(s) with the cloned serotonin 5-HT6 binding site.
Mol. Pharmacol. (43): 320-327 (1993).

5-HT6 receptor [2] = target: T1, 5-HT6 receptor; settings: literature; cited from earlier work
[3] = test system: animal models for schizophrenia; settings: literature (Pouzet et al. 2002); cited from earlier work

T1 sequence (P50406 whole entry): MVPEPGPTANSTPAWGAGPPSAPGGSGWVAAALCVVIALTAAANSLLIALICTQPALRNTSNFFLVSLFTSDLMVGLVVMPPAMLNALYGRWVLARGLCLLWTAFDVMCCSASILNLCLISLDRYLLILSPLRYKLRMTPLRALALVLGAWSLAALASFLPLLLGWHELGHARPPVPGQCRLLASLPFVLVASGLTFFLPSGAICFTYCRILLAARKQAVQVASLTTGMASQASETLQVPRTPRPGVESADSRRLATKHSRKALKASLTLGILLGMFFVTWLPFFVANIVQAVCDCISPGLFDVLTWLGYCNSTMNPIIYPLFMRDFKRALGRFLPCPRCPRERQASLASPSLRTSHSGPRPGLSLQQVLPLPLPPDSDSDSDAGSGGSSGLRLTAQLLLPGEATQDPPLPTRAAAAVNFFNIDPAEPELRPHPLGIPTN

inhibition at 0.1 µM (5-HT6 receptor [1]): 89%
Structure (SMILES): CCc1ccc(S(=O)(=O)n2ccc3cc(OC)ccc32)cc1OC1CCN(C)CC1 [Example 55, 5-Methoxy-1-[4-ethyl-3-(1-methylpiperidin-4-yloxy)benzenesulfonyl]-1H-indole]

melting point: 201.46 to 204.21 °C
Structure (SMILES): CCc1ccc(S(=O)(=O)n2ccc3cc(F)ccc32)cc1OC1CCNCC1.Cl

inhibition at 0.1 µM (5-HT6 receptor [1]): 89.8%
Structure (SMILES): CN1CCC(Oc2cc(S(=O)(=O)n3ccc4cc(F)ccc43)ccc2Cl)CC1 [Example 59, 5-Fluoro-1-[4′-chloro-3′-(1-methylpiperidin-4-yloxy)benzenesulfonyl]-1H-indole]

inhibition at 0.1 µM (5-HT6 receptor [1]): 31.5%
Structure (SMILES): COc1ccc2c(ccn2S(=O)(=O)c2ccc(C(C)C)c(OC3CCN(C)CC3)c2)c1 [Example 52, 5-Methoxy-1-[4′-isopropyl-3′-(1-methylpiperidin-4-yloxy)benzenesulfonyl]-1H-indole]

inhibition at 0.1 µM (5-HT6 receptor [1]): 89.4%
Structure (SMILES): Cc1ccc(S(=O)(=O)n2ccc3cc(F)ccc32)cc1OC1CCN(C)CC1 [Example 24, 5-Fluoro-1-(4′-methyl-3′-(1-methylpiperidin-4-yloxy)benzenesulfonyl)-1H-indole hydrochloride]

inhibition at 0.1 µM (5-HT6 receptor [1]): 61.7%
Structure (SMILES): CN1CCC(Oc2cccc(S(=O)(=O)n3ccc4cc(F)ccc43)c2)CC1 [Example 8, 5-Fluoro-1-[3′-(1-methylpiperidin-4-yloxy)benzenesulfonyl]-1H-indole]

melting point: 127.2 to 128 °C
Structure (SMILES): COc1ccc(S(=O)(=O)n2ccc3cc(Br)ccc32)cc1OC1CCN(C)CC1 [Example 63, 5-Bromo-1-[4′-methoxy-3′-(1-methylpiperidin-4-yloxy)benzenesulfonyl]-1H-indole]

inhibition at 0.1 µM (5-HT6 receptor [1]): 58.2%
Structure (SMILES): COc1ccc2c(ccn2S(=O)(=O)c2cccc(OC3CCN(C)CC3)c2)c1 [Example 9, 5-Methoxy-1-[3′-(1-methylpiperidin-4-yloxy)benzenesulfonyl]-1H-indole]

melting point: 112 to 115 °C
Structure (SMILES): COc1ccc(S(=O)(=O)n2ccc3ccc(Cl)cc32)cc1OC1CCN(C)CC1 [Example 62, 6-Chloro-1-[4′-methoxy-3′-(1-methylpiperidin-4-yloxy)benzenesulfonyl]-1H-indole]

inhibition at 0.1 µM (5-HT6 receptor [1]): 91.6%
Structure (SMILES): COc1ccc(S(=O)(=O)n2ccc3cc(F)ccc32)cc1OC1CCN(C)CC1 [Example 58, 5-Fluoro-1-[4′-methoxy-3′-(1-methylpiperidin-4-yloxy)benzenesulfonyl]-1H-indole]

melting point: 73.2 to 74.5 °C
inhibition at 0.1 µM (5-HT6 receptor [1]): 66.9%
Structure (SMILES): CC(C)c1ccc(S(=O)(=O)n2ccc3cc(F)ccc32)cc1OC1CCN(C)CC1 [Example 53, 5-Fluoro-1-[4′-isopropyl-3′-(1-methylpiperidin-4-yloxy)benzenesulfonyl]-1H-indole]

melting point: 133.2 to 134.5 °C
Structure (SMILES): CCc1ccc(S(=O)(=O)n2cc(Br)c3cc(F)ccc32)cc1OC1CCN(C)CC1 [Example 67, 3-Bromo-5-fluoro-1-[4′-ethyl-3′-(1-methylpiperidin-4-yloxy)benzenesulfonyl]-1H-indole]

Second part, the molecule before the results:

Structure (SMILES): CCc1ccc(S(=O)(=O)n2cc(Br)c3cc(F)ccc32)cc1OC1CCNCC1.Cl
melting point: 289.9 to 291.5 °C

Structure (SMILES): CN1CCN2c3ccccc3Cc3ccccc3C2C1 (stereo not drawn) [mianserin]
Affinity for the 5-HT6 receptor (in words) (5-HT6 receptor [2]): high affinity

Structure (SMILES): Cc1ccc(S(=O)(=O)n2cc(C)c3ccccc32)cc1OC1CCN(C)CC1 [Example 54, 3-Methyl-1-[4′-methyl-3′-(1-methylpiperidin-4-yloxy)benzenesulfonyl]-1H-indole]
inhibition at 0.1 µM (5-HT6 receptor [1]): 99.7%

Structure (SMILES): COc1ccc2c(ccn2S(=O)(=O)c2ccc(C)c(OCCCN(C)C)c2)c1 [Example 19, 1-[4′-Methyl-3′-(N,N-dimethylaminopropoxy)benzenesulfonyl]-5-methoxy-1H-indole]
Ki (5-HT6 receptor [1]): 30.9 nM

Structure (SMILES): Cc1ccc(S(=O)(=O)n2ccc3ccc(Cl)cc32)cc1OCCN(C)C [Example 15, 6-Chloro-1-[4′-methyl-3′-(N,N-dimethylaminoethoxy)benzenesulfonyl]-1H-indole]
Ki (5-HT6 receptor [1]): 1.57 nM

Structure (SMILES): Cc1ccc(S(=O)(=O)n2ccc3ccccc32)cc1OCCN(C)C [Example 10, 1-[4′-Methyl-3′-(N,N-dimethylaminoethoxy)benzenesulfonyl]-1H-indole]
Ki (5-HT6 receptor [1]): 2.75 nM

Structure (SMILES): CCc1ccc(S(=O)(=O)n2ccc3ccccc32)cc1OCCN(C)C [Example 26, 1-[4′-Ethyl-3′-(N,N-dimethylaminoethoxy)benzenesulfonyl]-1H-indole]
Ki (5-HT6 receptor [1]): 1.9 nM

Structure (SMILES): COc1ccc2c(ccn2S(=O)(=O)c2ccc(C)c(OCCN(C)C)c2)c1 [Example 13, 1-[4′-Methyl-3′-(N,N-dimethylaminoethoxy)benzenesulfonyl]-5-methoxy-1H-indole]
Ki (5-HT6 receptor [1]): 11.2 nM

Structure (SMILES): CCc1ccc(S(=O)(=O)n2ccc3ccccc32)cc1OCCCN(C)C [Example 31, 1-[4′-Ethyl-3′-(N,N-dimethylaminopropoxy)benzenesulfonyl]-1H-indole]
Ki (5-HT6 receptor [1]): 35.2 nM

Structure (SMILES): Cc1ccc(S(=O)(=O)n2ccc3cc(F)ccc32)cc1OCCCN(C)C [Example 17, 5-Fluoro-1-[4′-Methyl-3′-(N,N-dimethylaminopropoxy)benzenesulfonyl]-1H-indole]
Ki (5-HT6 receptor [1]): 12.5 nM

Structure (SMILES): Cc1ccc(S(=O)(=O)n2ccc3cc(Br)ccc32)cc1OCCN(C)C [Example 12, 5-Bromo-1-[4′-methyl-3′-(N,N-dimethylaminoethoxy)benzenesulfonyl]-1H-indole]
Ki (5-HT6 receptor [1]): 28.3 nM

Structure (SMILES): CCc1ccc(S(=O)(=O)n2ccc3cc(F)ccc32)cc1OCCCN(C)C [Example 35, 1-[4′-Ethyl-3′-(N,N-dimethylaminopropoxy)benzenesulfonyl]-5-fluoro-1H-indole]
Ki (5-HT6 receptor [1]): 18.8 nM

Structure (SMILES): COc1ccc2c(ccn2S(=O)(=O)c2ccc(OC)c(OC3CCNCC3)c2)c1.Cl [Example 56, 5-Methoxy-1-[4′-methoxy-3′-(piperidin-4-yloxy)benzenesulfonyl]-1H-indole hydrochloride]
melting point: 231.2 to 232.7 °C
inhibition at 0.1 µM (5-HT6 receptor [1]): 88.6%

Structure (SMILES): COc1ccc(NS(=O)(=O)c2sc3ccc(Cl)cc3c2C)cc1N1CCNCC1 [SB-271046, 5-Chloro-N-(4-methoxy-3-piperazin-1-ylphenyl)-3-methyl-2-benzothiophenesulfonamide]
Activity in animal tests related to positive or negative symptoms of schizophrenia [3]: inactive

Structure (SMILES): Cc1ccc(S(=O)(=O)n2ccc3cc(Br)ccc32)cc1OCCCN(C)C [Example 18, 5-Bromo-1-[4′-Methyl-3′-(N,N-dimethylaminopropoxy)benzenesulfonyl]-1H-indole]
Ki (5-HT6 receptor [1]): 11.8 nM

Structure (SMILES): CCc1ccc(S(=O)(=O)n2ccc3cc(Br)ccc32)cc1OCCCN(C)C [Example 32, 5-Bromo-1-[4′-Ethyl-3′-(N,N-dimethylaminopropoxy)benzenesulfonyl]-1H-indole]
Ki (5-HT6 receptor [1]): 7.55 nM

Structure (SMILES): COc1ccc2c(ccn2S(=O)(=O)c2ccc(C(C)C)c(OCCCN(C)C)c2)c1 [Example 43, 1-[4′-Isopropyl-3′-(N,N-dimethylaminopropoxy)benzenesulfonyl]-5-Methoxy-1H-indole]
Ki (5-HT6 receptor [1]): 62.5 nM

Structure (SMILES): Cc1ccc(S(=O)(=O)n2ccc3c(Cl)cccc32)cc1OCCCN(C)C [Example 79, 4-Chloro-1-[4′-Methyl-3′-(N,N-dimethylaminopropoxy)benzenesulfonyl]-1H-indole]
Ki (5-HT6 receptor [1]): 13.6 nM

Structure (SMILES): Cc1ccc(S(=O)(=O)n2ccc3ccccc32)cc1OCCCN(C)C [Example 16, 1-[4′-Methyl-3′-(N,N-dimethylaminopropoxy)benzenesulfonyl]-1H-indole]
Ki (5-HT6 receptor [1]): 1.86 nM

Structure (SMILES): Cc1ccc(S(=O)(=O)n2ccc3cc(F)ccc32)cc1OCCN(C)C [Example 11, 5-Fluoro-1-[4′-methyl-3′-(N,N-dimethylaminoethoxy)benzenesulfonyl]-1H-indole]
Ki (5-HT6 receptor [1]): 5.87 nM

Structure (SMILES): CCc1ccc(S(=O)(=O)n2ccc3ccc(Cl)cc32)cc1OCCCN(C)C [Example 33, 1-[4′-Ethyl-3′-(N,N-dimethylaminopropoxy)benzenesulfonyl]-6-chloro-1H-indole]
Ki (5-HT6 receptor [1]): 5.8 nM

Structure (SMILES): CCOc1ccc2c(ccn2S(=O)(=O)c2ccc(C)c(OCCCN(C)C)c2)c1 [Example 20, 5-Ethoxy-1-[4′-methyl-3′-(N,N-dimethylaminopropoxy)benzenesulfonyl]-1H-indole]
Ki (5-HT6 receptor [1]): 12.4 nM

Structure (SMILES): CCc1ccc(S(=O)(=O)n2ccc3cc(F)ccc32)cc1OCCN(C)C [Example 30, 1-[4′-Ethyl-3′-(N,N-dimethylaminoethoxy)benzenesulfonyl]-5-fluoro-1H-indole]
Ki (5-HT6 receptor [1]): 5.44 nM

Structure (SMILES): CN(C)CCC=C1c2ccccc2CCc2ccccc21 [amitriptyline]
Affinity for the 5-HT6 receptor (in words) (5-HT6 receptor [2]): high affinity

Structure (SMILES): Cl.O=S(=O)(c1ccc(Cl)c(OC2CCNCC2)c1)n1ccc2ccc(Cl)cc21
melting point: 258.3 to 259.5 °C

Structure (SMILES): CC(C)c1ccc(S(=O)(=O)n2ccc3ccccc32)cc1OCCN(C)C [Example 36, 1-[4′-Isopropyl-3′-(N,N-dimethylaminoethoxy)benzenesulfonyl]-1H-indole]
Ki (5-HT6 receptor [1]): 13.9 nM

Structure (SMILES): Cc1ccc(S(=O)(=O)n2ccc3ccc(Cl)cc32)cc1OCCCN(C)C [Example 21, 6-Chloro-1-[4′-methyl-3′-(N,N-dimethylaminopropoxy)benzenesulfonyl]-1H-indole]
Ki (5-HT6 receptor [1]): 13.1 nM

Structure (SMILES): COc1ccc2c(c1)c(C)cn2S(=O)(=O)c1ccc(C(C)C)c(OC2CCN(C)CC2)c1 [Example 61, 5-Methoxy-3-methyl-1-[4′-isopropyl-3′-(1-methylpiperidin-4-yloxy)benzenesulfonyl]-1H-indole]
melting point: 73.2 to 74.5 °C
